Measurements from PubChem BioAssay AID1963981 (Molecular Pharmacology Branch, DTP, NCI, 2024).

Test system: 354836-022-R-J1-PDC multicell spheroid viability
Assay: Anticancer human tumor 354836-022-R-J1-PDC patient-derived head and neck squamous cell carcinoma cell line growth inhibition [PI3K]
Settings: for IC50: curve of first compound; for viability, T/C: stronger effect = lower value
Summary of the method: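 Tumor cells grown as multi-cell spheroids with HUVEC endothelial cells and MSC fibroblast-like stroma were treated with targeted agents combined with inavolisib, alpelisib, duvelisib or copanlisib. Doses fell in half-log steps from near clinical Cmax, else from 10 microM. Viability was measured.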

[1] = second compound 0.0316 µM, first compound 0.0316 µM
[2] = second compound 0.0316 µM, first compound 0.1 µM
[3] = second compound 0.1 µM, first compound 0.0316 µM
[4] = second compound 0.1 µM, first compound 0.1 µM
[5] = second compound 0.316 µM, first compound 0.0316 µM
[6] = second compound 0.316 µM, first compound 0.1 µM
[7] = second compound 1 µM, first compound 0.0316 µM
[8] = second compound 1 µM, first compound 0.1 µM
[9] = second compound 3.16 µM, first compound 0.0316 µM
[10] = second compound 3.16 µM, first compound 0.1 µM
[11] = second compound 10 µM, first compound 0.0316 µM
[12] = second compound 10 µM, first compound 0.1 µM
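Also: spheroids exposed to agents for seven days before the viability read.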

## CC(=O)c1c(C)c2cnc(Nc3ccc(N4CCNCC4)cn3)nc2n(C2CCCC2)c1=O + CC(Nc1ncnc2nc[nH]c12)c1cc2cccc(Cl)c2c(=O)n1-c1ccccc1
Second compound 0.0316 µM
  IC50: > 100 nM
Second compound 0.1 µM
  IC50: > 100 nM
Second compound 0.316 µM
  IC50: > 100 nM
Second compound 1 µM
  IC50: > 100 nM
Second compound 3.16 µM
  IC50: > 100 nM
Second compound 10 µM
  IC50: > 100 nM
Second compound 0.0316 µM, first compound 0.000316 µM
  viability, T/C: 96.8%
Second compound 0.0316 µM, first compound 0.001 µM
  viability, T/C: 110%
Second compound 0.0316 µM, first compound 0.00316 µM
  viability, T/C: 108%
Second compound 0.0316 µM, first compound 0.01 µM
  viability, T/C: 103%
[1]
  viability, T/C: 97.7%
[2]
  viability, T/C: 99.5%
Second compound 0.1 µM, first compound 0.000316 µM
  viability, T/C: 89.4%
Second compound 0.1 µM, first compound 0.001 µM
  viability, T/C: 99.3%
Second compound 0.1 µM, first compound 0.00316 µM
  viability, T/C: 94.9%
Second compound 0.1 µM, first compound 0.01 µM
  viability, T/C: 91.5%
[3]
  viability, T/C: 105%
[4]
  viability, T/C: 101%
Second compound 0.316 µM, first compound 0.000316 µM
  viability, T/C: 90%
Second compound 0.316 µM, first compound 0.001 µM
  viability, T/C: 98.8%
Second compound 0.316 µM, first compound 0.00316 µM
  viability, T/C: 100%
Second compound 0.316 µM, first compound 0.01 µM
  viability, T/C: 100%
[5]
  viability, T/C: 111%
[6]
  viability, T/C: 113%
Second compound 1 µM, first compound 0.000316 µM
  viability, T/C: 82.2%
Second compound 1 µM, first compound 0.001 µM
  viability, T/C: 96.7%
Second compound 1 µM, first compound 0.00316 µM
  viability, T/C: 97.2%
Second compound 1 µM, first compound 0.01 µM
  viability, T/C: 110%
[7]
  viability, T/C: 96.8%
[8]
  viability, T/C: 91.6%
Second compound 3.16 µM, first compound 0.000316 µM
  viability, T/C: 108%
Second compound 3.16 µM, first compound 0.001 µM
  viability, T/C: 107%
Second compound 3.16 µM, first compound 0.00316 µM
  viability, T/C: 98.5%
Second compound 3.16 µM, first compound 0.01 µM
  viability, T/C: 104%
[9]
  viability, T/C: 88.3%
[10]
  viability, T/C: 90.2%
Second compound 10 µM, first compound 0.000316 µM
  viability, T/C: 89.8%
Second compound 10 µM, first compound 0.001 µM
  viability, T/C: 95.2%
Second compound 10 µM, first compound 0.00316 µM
  viability, T/C: 91.1%
Second compound 10 µM, first compound 0.01 µM
  viability, T/C: 109%
[11]
  viability, T/C: 98.8%
[12]
  viability, T/C: 91.5%

## Cn1ncc(Cl)c1-c1cc(C(=O)NC(CN)Cc2cccc(F)c2)sc1Cl (centres undefined) + Cc1nc(NC(=O)N2CCCC2C(N)=O)sc1-c1ccnc(C(C)(C)C(F)(F)F)c1
Second compound 0.0316 µM
  IC50: 99.8 nM
Second compound 0.1 µM
  IC50: 105 nM
Second compound 0.316 µM
  IC50: 157 nM
Second compound 1 µM
  IC50: 115 nM
Second compound 3.16 µM
  IC50: 32.4 nM
Second compound 10 µM
  IC50: < 31.6 nM
[1]
  viability, T/C: 78.8%
[2]
  viability, T/C: 46.8%
Second compound 0.0316 µM, first compound 0.316 µM
  viability, T/C: 32.6%
Second compound 0.0316 µM, first compound 1 µM
  viability, T/C: 20.9%
Second compound 0.0316 µM, first compound 3.16 µM
  viability, T/C: 17.9%
Second compound 0.0316 µM, first compound 10 µM
  viability, T/C: 3.64%
[3]
  viability, T/C: 79.4%
[4]
  viability, T/C: 45%
Second compound 0.1 µM, first compound 0.316 µM
  viability, T/C: 36.2%
Second compound 0.1 µM, first compound 1 µM
  viability, T/C: 21.6%
Second compound 0.1 µM, first compound 3.16 µM
  viability, T/C: 16.7%
Second compound 0.1 µM, first compound 10 µM
  viability, T/C: 4.82%
[5]
  viability, T/C: 64.3%
[6]
  viability, T/C: 63.8%
Second compound 0.316 µM, first compound 0.316 µM
  viability, T/C: 31.2%
Second compound 0.316 µM, first compound 1 µM
  viability, T/C: 23%
Second compound 0.316 µM, first compound 3.16 µM
  viability, T/C: 19.3%
Second compound 0.316 µM, first compound 10 µM
  viability, T/C: 4.88%
[7]
  viability, T/C: 59.5%
[8]
  viability, T/C: 53.6%
Second compound 1 µM, first compound 0.316 µM
  viability, T/C: 36.9%
Second compound 1 µM, first compound 1 µM
  viability, T/C: 21.2%
Second compound 1 µM, first compound 3.16 µM
  viability, T/C: 14.4%
Second compound 1 µM, first compound 10 µM
  viability, T/C: 3.77%
[9]
  viability, T/C: 48.9%
[10]
  viability, T/C: 44.9%
Second compound 3.16 µM, first compound 0.316 µM
  viability, T/C: 25.4%
Second compound 3.16 µM, first compound 1 µM
  viability, T/C: 18.1%
Second compound 3.16 µM, first compound 3.16 µM
  viability, T/C: 11.6%
Second compound 3.16 µM, first compound 10 µM
  viability, T/C: 4.32%
[11]
  viability, T/C: 34.2%
[12]
  viability, T/C: 29.4%
Second compound 10 µM, first compound 0.316 µM
  viability, T/C: 21.9%
Second compound 10 µM, first compound 1 µM
  viability, T/C: 14.8%
Second compound 10 µM, first compound 3.16 µM
  viability, T/C: 8.76%
Second compound 10 µM, first compound 10 µM
  viability, T/C: 3.16%
